Data as given in the NIST ThermoML archive (doi:10.1021/acs.jced.9b00327).

Columns and labels:
[1] = mn = molality of the nth substance listed, in mol/kg; conditions: 100 kPa, Liquid; for speed of sound: Single path-length method; for mass density: Vibrating tube method
[2] = 100 kPa, Liquid, Single path-length method

Cn1c(=O)c2c(ncn2C)n(C)c1=O [caffeine] + O
[1]
Conditions	mass density, m1 = 0.005 [kg/m3]	mass density, m1 = 0.01 [kg/m3]	mass density, m1 = 0.02 [kg/m3]	mass density, m1 = 0.04 [kg/m3]	mass density, m1 = 0.06 [kg/m3]	speed of sound, m1 = 0.005 [m/s]	speed of sound, m1 = 0.01 [m/s]	speed of sound, m1 = 0.02 [m/s]	speed of sound, m1 = 0.04 [m/s]	speed of sound, m1 = 0.06 [m/s]
293.15 K	998.731	998.986	999.492	1000.68	1001.78	1483	1483.5	1484	1485.1	1486.2
298.15 K	997.275	997.549	998.082	999.091	1000.02	1497.2	1497.6	1498	1499	1500.1
303.15 K	996.169	996.422	996.912	997.986	999.147	1509.5	1509.8	1510.3	1511.2	1512.1
308.15 K	994.279	994.556	995.092	996.095	997.015	1520.1	1520.4	1520.8	1521.6	1522.4
313.15 K	992.732	992.974	993.452	994.51	995.632	1529.1	1529.4	1529.8	1530.4	1531.2
318.15 K	990.833	990.981	991.327	992.156	992.958	1536.7	1537	1537.2	1537.8	1538.5

O [water]
[2]
Conditions	speed of sound [m/s]
313.15 K	1528.9
318.15 K	1536.5
